In general, GI50 refers to the concentration giving 50% growth inhibition. Low values mean greater sensitivity of the cells, high ones lower sensitivity of the cells.

From patent US6492373B2, “6-fluoro-1,4-dihydro-7-[4-(2-hydroxyiminoethyl)-1-piperazinyl]-4-oxoquinoline-3-carboxylic acid derivatives, their preparation and pharmaceutical compositions” (Pharmaceutical Industry Technology and Development Center, priority 2000, dated 2002) come the findings set out here.

Common to all, as to format: cell-based
The subject of one test is SK-OV-4 (ovarian cancer). The test is described as follows: NCI in vitro tumor cell growth inhibition (GI50). The following applies: Homo sapiens.
The subject of a further test is UO-31 (renal cancer). Nature of the test: NCI in vitro tumor cell growth inhibition (GI50). As to conditions: Homo sapiens.
For a further test, the system named is RPMI-8226 (leukemia). The test is described as follows: NCI in vitro tumor cell growth inhibition (GI50). The following applies: Homo sapiens.
Test [1] concerns 60 human tumor cell lines. Nature of the test: NCI in vitro tumor cell growth inhibition, whole panel. As to conditions: for GI50: Homo sapiens, Mean values over 60 cell lines tested; for Range: Ratio of GI50 value for the least sensitive cell to the most sensitive cell.
Another test deals with HL-60 (TB) (leukemia). The test is described as follows: NCI in vitro tumor cell growth inhibition (GI50). As to conditions: Homo sapiens.
In another test the test system is RXF-393 (renal cancer). The test is described as follows: NCI in vitro tumor cell growth inhibition (GI50). As to conditions: Homo sapiens.
Another test has as its system CCRF-CEM (leukemia). The test is described as follows: NCI in vitro tumor cell growth inhibition (GI50). As to conditions: Homo sapiens.
The subject of another test is SK-OV-5 (ovarian cancer). The test is described as follows: NCI in vitro tumor cell growth inhibition (GI50). As to conditions: Homo sapiens.
In test [2] the test system is NCI-H226 (non-small cell lung cancer). Nature of the test: NCI in vitro tumor cell growth inhibition (GI50). The following applies: Homo sapiens.
The test system of test [3] is EKVX (non-small cell lung cancer). Nature of the test: NCI in vitro tumor cell growth inhibition (GI50). As to conditions: Homo sapiens.
The test system of a further test is SK-OV-3 (ovarian cancer). The test is described as follows: NCI in vitro tumor cell growth inhibition (GI50). As to conditions: Homo sapiens.
Test [4] has as its system HOP-62 (non-small cell lung cancer). Nature of the test: NCI in vitro tumor cell growth inhibition (GI50). As to conditions: Homo sapiens.
The next test has as its system CAKI-1 (renal cancer). The test is described as follows: NCI in vitro tumor cell growth inhibition (GI50). As to conditions: Homo sapiens.

Regarding `CCn1cc(C(=O)O)c(=O)c2cc(F)c(N3CCN(CC(=NO)c4ccc(F)cc4)CC3)cc21` [Exp. 9, 1-Ethyl-6-fluoro-7-{4-[2-(4-fluorophenyl)-2-hydroxyimino-ethyl]-1-piperazinyl}-4-oxo-1,4-dihydro-3-quinolinecarboxylic acid], the 50% growth inhibitory concentration (GI50) is 39.4 µM in the test on SK-OV-4 (ovarian cancer); 0.13 µM in the test with UO-31 (renal cancer); 22.9 µM in the test on RPMI-8226 (leukemia); 21.5 µM in [1]; 0.98 µM in the test with HL-60 (TB) (leukemia); 0.17 µM in the test with RXF-393 (renal cancer). Further, the GI50 in the test on CCRF-CEM (leukemia) is 10.5 µM; in the test with SK-OV-5 (ovarian cancer), over 100 µM; in test [2], 53.5 µM; in test [3], 42.6 µM; in the test on SK-OV-3 (ovarian cancer), 32 µM; in [4], 42.6 µM. For the same molecule, it took 1.89 µM to inhibit growth in the test on CAKI-1 (renal cancer) by half (GI50). Also, the Range in test [1] came out at 758.
Take `CCn1cc(C(=O)O)c(=O)c2cc(F)c(N3CCN(CC(=NO)c4ccc(Cl)cc4)CC3)cc21` [Exp. 10, 1-Ethyl-6-fluoro-7-{4-[2-(4-chlorophenyl)-2-hydroxyimino-ethyl]-1-piperazinyl}-4-oxo-1,4-dihydro-3-quinolinecarboxylic acid]: the concentration for 50% growth inhibition (GI50) with SK-OV-4 (ovarian cancer) was 32.1 µM; with UO-31 (renal cancer) it was 0.03 µM; with RPMI-8226 (leukemia) it was 3.21 µM; in test [1] it was 9.31 µM; with HL-60 (TB) (leukemia), 1.29 µM; in the test on RXF-393 (renal cancer) it was 0.72 µM. The 50% growth inhibitory concentration (GI50) was found to be 67.4 µM in the test on CCRF-CEM (leukemia); 22.8 µM in the test on SK-OV-5 (ovarian cancer); 20.3 µM in test [2]; 19.2 µM in [3]; 28.7 µM in the test on SK-OV-3 (ovarian cancer); 28.6 µM in test [4]. For the same molecule, the GI50 with CAKI-1 (renal cancer) stood at 0.4 µM. For the same molecule, in test [1], the Range came out at 2291.
